Assay results as given in patent US6462045B1, “Method of treating pulmonary hypertension” (Orion Corporation, priority 1998, dated 2002).

Legend:
[1] = test system: patients; assay: Experiment 1: levosimendan infusion for 24 hrs in 95 patients, change in mean pulmonary artery pressure; assay type: in vivo, human; conditions: infusion 0.05, 0.1, 0.2, 0.4 and 0.6 μg/kg/min for 24 hrs, FIG. 1
Protocol: Levosimendan (LS) was administered by infusion (0.05-0.6 μg /kg/min) to totally 95 patients (n=14-23 per group) in amounts of 0.05, 0.1, 0.2, 0.4 and 0.6 μg/kg/min for 24 hrs. The change in the mean pulmonary artery pressure was determined.
------ is placebo, --O-- is vehicle, --[…]-- is dobutamine,
— is LS 0.05 μg/kg/min, —C— is LS 0.1 μg/kg/min, —□— is LS 0.2 μg/kg/min,
—⋄— is LS 0.4 μg/kg/min, —Δ— is LS 0.6 μg/kg/min

[2] = test system: patient with pulmonary hypertension; assay: Experiment 2: levosimendan infusion for 5.5 hrs in a patient with pulmonary hypertension, mean pulmonary artery pressure; assay type: in vivo, human
Protocol: Levosimendan was administered by infusion (0.1-0.4 μg/kg/min) to a patient with pulmonary hypertension in amounts of 0.1, 0.2 and 0.4 μg/kg/min for 5.5 hrs. At 0.25 h the infusion rate was 0.1 μg/kg/min, at 2.00 h the infusion rate was increased to 0.2 μg/kg/min and at 4.5 h the infusion rate was increased to 0.4 μg/kg/min. The change in the mean pulmonary artery pressure (MPAP) was determined.
Table 1. The change of mean pulmonary artery pressure (NPAP) during levosimendan infusion. 0.25 h infusion rate 0.1 μg/kg/min, 2.00 h infusion rate 0.2 μg/kg/min, 4.5 h infusion rate 0.4 μg/kg/min.

CC1CC(=O)NN=C1c1ccc(NN=C(C#N)C#N)cc1 (single isomer, unassigned; (-)) [levosimendan, (−)-[[4-(1,4,5,6-tetrahydro-4-methyl-6-oxo-3-pyridazinyl)phenyl]hydrazono]propanedinitrile]
change in the mean pulmonary artery pressure [1]: able to significantly lower pulmonary artery pressure
change in the mean pulmonary artery pressure (MPAP) ([2]; infusion 0.1, 0.2 and 0.4 μg/kg/min for 5.5 hrs, one patient with pulmonary hypertension): able to significantly lower pulmonary artery pressure
MPAP ([2]; time 0 h (before the 0.1 μg/kg/min infusion rate at 0.25 h)): 41 mmHg
MPAP ([2]; time 0.75 h, infusion rate 0.1 μg/kg/min): 42 mmHg
MPAP ([2]; time 1.25 h, infusion rate 0.1 μg/kg/min): 42 mmHg
MPAP ([2]; time 1.75 h, infusion rate 0.1 μg/kg/min): 39 mmHg
MPAP ([2]; time 2.50 h, infusion rate 0.2 μg/kg/min): 34 mmHg
MPAP ([2]; time 3.00 h, infusion rate 0.2 μg/kg/min): 35 mmHg
MPAP ([2]; time 3.50 h, infusion rate 0.2 μg/kg/min): 35 mmHg
MPAP ([2]; time 4.00 h, infusion rate 0.2 μg/kg/min): 32 mmHg
MPAP ([2]; time 5.00 h, infusion rate 0.4 μg/kg/min): 27 mmHg
MPAP ([2]; time 5.50 h, infusion rate 0.4 μg/kg/min): 29 mmHg
